Columns and labels:
hTopII = molecular target: T1, hTopII (Homo sapiens, UniProt P11388); assay: Detection of hTOP2α cleavage complexes (cleavage assay); format: cell-based; settings: 100 μM
T1 construct: endogenous in cells
Experimental: (§1) After compound treatments, 1 × 10^6 human cells in 35 mm dish per sample were washed with 1× phosphate-buffered saline (PBS) and lysed with 600 μL of DNAzol (Invitrogen), followed by precipitation with 300 μL of 200 proof ethanol. The nucleic acids were collected, washed with 75% ethanol, resuspended in 200 μL of TE buffer, and then heated at 65 °C for 15 min, followed by shearing with sonication (40% output for 10 s pulse and 10 s rest for four times). The samples were centrifuged at 15 000 rpm for 5 min at 4 °C, and the supernatant were collected. 1 μL of each sample was removed for spectrophotometric measurement of absorbance at 260 nm to quantitate DNA content (NanoDrop). 2 μg of each sample was subjected to slot-blot for immunoblotting using anti-hTOP1 antibody (BD Pharmingen, 556597) and anti-hTOP2α antibody (Santa Cruz biotechnology, 365916).[51]

hTopI = molecular target: T2, hTopI (Homo sapiens, UniProt P11387); assay: Detection of hTOP1 cleavage complexes (cleavage assay); format: cell-based; settings: 100 μM
T2 construct: endogenous in cells
Experimental: as §1

WT SK-Hep-1 cells = assay: Antiproliferative effect on WT SK-Hep-1 cells (CCK-8); format: cell-based, human; settings: 48 hours
Experimental: HCCLM3 and SK-Hep-1 cells were seeded into 96-well plates at a density of 10 000 cells per well and allowed to adhere overnight. Subsequently, the cells were treated with the following substances: 0.1% DMSO as the negative control, various concentrations of the test compounds, and 125 μM enoxacin as the positive control. After 48 h of incubation, the original culture medium was removed, and the cells were washed twice with PBS. Then, 100 μL of DMEM culture medium containing 10% CCK-8 (Bimake, USA) was added to each well. The plates were incubated for 30 minutes at 37 °C. To determine the […], measurements were taken at a wavelength of 450 nm using a Varioskan from Thermo Fisher Scientific.

A549 (lung carcinoma) = assay: Proliferation of A549 cells (trypan blue count); format: cell-based, human; settings: 30 μM, 72 hours
Experimental: A2780 and SKOV-3 cells were treated with 50 μM of 33 for 72 h before RNA and protein extraction and expression analyses. A2780 and A2780 CIS were treated with 33 (30 μM) and/or cisplatin (1 μM, Sigma-Aldrich) for 48 hours while MCF-7, A549 and HCT-116 were treated with 33 (30 μM) for 72 hours. Total cell number and viability have been assessed using Trypan Blue Solution (Thermo Fisher Scientific) and Countess™ 3 Automated Cell Counter (Thermo Fisher Scientific).

TRBP = molecular target: T3, TRBP (Homo sapiens, UniProt Q15633); assay: Surface plasmon resonance (SPR) assay on TRBP; format: binding; settings: versus enoxacin
T3 sequence (Q15633 1-366): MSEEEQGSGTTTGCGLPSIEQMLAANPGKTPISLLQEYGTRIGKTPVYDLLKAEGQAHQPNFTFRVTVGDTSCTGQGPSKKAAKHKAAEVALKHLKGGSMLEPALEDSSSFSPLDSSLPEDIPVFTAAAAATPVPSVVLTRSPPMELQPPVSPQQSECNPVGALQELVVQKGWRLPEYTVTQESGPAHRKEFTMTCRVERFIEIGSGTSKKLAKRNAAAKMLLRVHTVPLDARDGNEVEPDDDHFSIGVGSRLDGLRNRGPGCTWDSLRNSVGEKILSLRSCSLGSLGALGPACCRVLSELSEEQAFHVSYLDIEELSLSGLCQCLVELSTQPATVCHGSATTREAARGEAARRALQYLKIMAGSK
Experimental: Following the manufacturer's instructions, the BIAcore Sensor Chip (CM5) underwent initial activation using a mixture of NHS and EDC. Subsequently, recombinant human TRBP proteins at a concentration of 20 μg mL^−1 (in 10 mM sodium acetate, pH 4.0) were injected over the CM5 chip. After reaching a coupling level of 12 000 RU, a 1 M ethanolamine hydrochloride was injected to block the chip, preventing nonspecific binding. All the compounds were diluted in HBS-EP buffer (10 mM HEPES, pH 7.4, 3 mM EDTA, 150 mM NaCl, and 0.005% surfactant P-20) with 1% DMSO. Samples were injected at a rate of 10 μL min^−1 for 120 seconds, followed by a dissociation phase of 90 seconds. After each cycle, a 50% DMSO solution was used to regenerate the chip surface and restore the sensorgram baseline. Binding analysis was performed using BIA evaluation version 3.2 software, determining the […] (KD).

T1 sequence (P11388 whole entry): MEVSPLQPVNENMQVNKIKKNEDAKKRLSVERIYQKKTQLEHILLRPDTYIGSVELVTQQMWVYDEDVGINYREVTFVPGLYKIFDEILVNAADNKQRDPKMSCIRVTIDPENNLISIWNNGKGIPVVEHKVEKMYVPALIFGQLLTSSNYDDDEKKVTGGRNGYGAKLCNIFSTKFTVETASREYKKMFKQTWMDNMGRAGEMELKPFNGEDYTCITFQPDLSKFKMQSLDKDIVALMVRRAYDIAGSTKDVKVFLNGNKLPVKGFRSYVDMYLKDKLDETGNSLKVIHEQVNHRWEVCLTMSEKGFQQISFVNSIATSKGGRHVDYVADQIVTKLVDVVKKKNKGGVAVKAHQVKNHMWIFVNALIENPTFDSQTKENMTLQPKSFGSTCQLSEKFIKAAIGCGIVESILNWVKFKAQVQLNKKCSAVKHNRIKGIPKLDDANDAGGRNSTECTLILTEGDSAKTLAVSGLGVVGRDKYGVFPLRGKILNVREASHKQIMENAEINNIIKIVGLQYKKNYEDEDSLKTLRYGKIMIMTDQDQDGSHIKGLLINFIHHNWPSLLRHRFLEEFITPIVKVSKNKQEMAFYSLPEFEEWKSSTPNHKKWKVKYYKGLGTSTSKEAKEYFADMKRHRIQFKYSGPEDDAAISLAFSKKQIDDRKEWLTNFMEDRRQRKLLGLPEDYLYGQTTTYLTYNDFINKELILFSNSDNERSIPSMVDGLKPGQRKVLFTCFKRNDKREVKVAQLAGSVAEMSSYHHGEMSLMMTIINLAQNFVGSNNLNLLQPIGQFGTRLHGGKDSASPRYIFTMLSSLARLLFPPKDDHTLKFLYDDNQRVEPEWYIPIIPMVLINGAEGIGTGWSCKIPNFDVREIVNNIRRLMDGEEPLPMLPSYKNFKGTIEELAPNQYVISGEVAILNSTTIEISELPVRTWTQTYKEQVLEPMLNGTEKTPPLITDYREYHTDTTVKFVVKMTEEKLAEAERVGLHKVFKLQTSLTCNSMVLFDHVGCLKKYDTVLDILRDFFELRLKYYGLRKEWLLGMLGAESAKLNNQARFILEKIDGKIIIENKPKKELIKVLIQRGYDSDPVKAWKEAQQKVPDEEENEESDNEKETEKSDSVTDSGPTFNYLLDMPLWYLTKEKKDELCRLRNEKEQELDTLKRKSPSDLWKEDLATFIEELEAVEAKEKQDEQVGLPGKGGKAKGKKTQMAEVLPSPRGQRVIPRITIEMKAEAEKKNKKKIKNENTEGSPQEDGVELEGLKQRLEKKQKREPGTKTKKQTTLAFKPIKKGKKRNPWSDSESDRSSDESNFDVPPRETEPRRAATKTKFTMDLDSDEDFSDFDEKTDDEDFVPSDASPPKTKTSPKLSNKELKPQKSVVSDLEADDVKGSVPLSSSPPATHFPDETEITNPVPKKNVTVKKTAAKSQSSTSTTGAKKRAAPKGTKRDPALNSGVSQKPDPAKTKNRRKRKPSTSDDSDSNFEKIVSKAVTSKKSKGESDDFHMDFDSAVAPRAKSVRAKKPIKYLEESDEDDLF
T2 sequence (P11387 whole entry): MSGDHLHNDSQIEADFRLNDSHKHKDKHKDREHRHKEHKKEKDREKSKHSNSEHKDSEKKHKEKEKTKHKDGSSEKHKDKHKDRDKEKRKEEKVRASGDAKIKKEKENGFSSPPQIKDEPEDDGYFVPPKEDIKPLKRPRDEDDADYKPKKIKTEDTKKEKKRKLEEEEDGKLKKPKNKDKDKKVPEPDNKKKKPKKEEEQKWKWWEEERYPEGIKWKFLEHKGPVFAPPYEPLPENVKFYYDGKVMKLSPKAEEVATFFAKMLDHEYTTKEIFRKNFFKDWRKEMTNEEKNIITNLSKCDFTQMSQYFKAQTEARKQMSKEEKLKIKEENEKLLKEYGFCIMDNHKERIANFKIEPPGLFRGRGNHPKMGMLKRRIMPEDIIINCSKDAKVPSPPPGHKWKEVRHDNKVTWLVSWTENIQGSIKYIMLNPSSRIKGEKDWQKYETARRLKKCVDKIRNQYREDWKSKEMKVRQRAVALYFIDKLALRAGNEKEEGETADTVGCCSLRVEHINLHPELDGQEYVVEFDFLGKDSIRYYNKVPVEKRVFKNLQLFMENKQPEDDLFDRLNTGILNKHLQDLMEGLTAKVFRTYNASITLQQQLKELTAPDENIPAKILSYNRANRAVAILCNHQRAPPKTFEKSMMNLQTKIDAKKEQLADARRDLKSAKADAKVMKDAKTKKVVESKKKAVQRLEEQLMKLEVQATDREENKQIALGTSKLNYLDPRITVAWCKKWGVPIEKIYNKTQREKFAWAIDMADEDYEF

## O=C(O)c1cn(C2CC2)c2cc(N3CCc4ccccc4C3)c(F)cc2c1=O [Compound 33, 1-Cyclopropyl-7-(3,4-dihydroisoquinolin-2(1H)-yl)-6-fluoro-4-oxo-1,4-dihydroquinoline-3-carboxylic acid]
hTopII
  trapping/inhibition of hTopII (cleavage assay): no inhibition or trapping activity
hTopI
  trapping/inhibition of hTopI (cleavage assay): no inhibition or trapping activity
WT SK-Hep-1 cells; 30 μM
  antiproliferative effect on WT TRBP SK-Hep-1 cells: less evident
WT SK-Hep-1 cells; 50 μM
  viability of WT SK-Hep-1 cells: significantly reduced the viability
A549 (lung carcinoma)
  effect on A549 cell proliferation: significant inhibitory effect on cell proliferation
TRBP
  binding affinity for TRBP, fold stronger than enoxacin: approximately 40 fold

Reference: paper PMC11467779, “New anti-ovarian cancer quinolone derivatives acting by modulating microRNA processing machinery” (RSC Medicinal Chemistry, 2024)
